In test [1] the target is AMPA receptor. As to the kind of experiment: AMPA receptor binding (Honore et al.).
In test [2] the target is kainate site (non-NMDA receptor). The test is described as follows: Kainate site (non-NMDA receptor) binding (London and Coyle).
In test [3] the target is T1, glycine site of the NMDA receptor (Rattus norvegicus, UniProt P35439).
T1 construct: from tissue
The test is described as follows: Binding to the glycine site of the NMDA receptor (Jones et al.).

Molecules are shown by their SMILES. Counter-ions that a name gives are not always drawn.

For orientation: IC50 means the midpoint of a concentration-inhibition curve. As for `O=c1[nH]c2cc([N+](=O)[O-])c3c(c2[nH]c1=O)CN(Cc1ccc(C(F)(F)F)cc1)CC3` [Example 18], the concentration for half-maximal inhibition (IC50) in test [1] turned out to be 3.1 µM; in test [2], 34 µM.
Consider `O=c1[nH]c2cc(Br)c3c(c2[nH]c1=O)CCN(Cc1cccc(C(F)(F)F)c1)C3` [Example 48, 6-Bromo-1,4,7,8,9,10-Hexahydro-8-[[3-(trifluoromethyl)methyl]pyrido[3,4-f]quinoxaline-2,3-dione hydrochloride], for which the figures for the IC50 in test [1] and in test [2] were 21 µM and 67 µM, respectively.
Broadly, the inhibition is the relative decrease from the control value, in per cent. Read a high inhibition as a response far below the control. Turning to `O=c1[nH]c2cc(Br)c3c(c2[nH]c1=O)CN(CCCc1ccccc1)CC3` [Example 14, 6-Bromo-1,4,7,8,9,10-hexahydro-9-(3-phenylpropyl)pyrido[3,4-f]quinoxaline-2,3-dione], the results for the IC50 in test [1] and in test [2] were greater than 100 µM and 40 µM, respectively. The compound also had an inhibition at 10 µM in test [3] of less than 50%.
For `O=C(c1ccc(Cl)cc1)N1CCc2c([N+](=O)[O-])cc3[nH]c(=O)c(=O)[nH]c3c2C1` [Example 37, 9-(4-Chlorobenzoyl)-1,4,7,8,9,10-hexahydro-6-nitropyrido[3,4-f]quinoxaline-2,3-dione], in that order: 0.84 µM, 8.2 µM and 74%.
For the compound `O=c1[nH]c2cc(Br)c3c(c2[nH]c1=O)CCN(CCCc1ccccc1)C3` [Example 54, 6-Bromo-1,4,7,8,9,10-hexahydro-8-(3-Phenylproyl)pyrido[3,4-f]quinoxaline-2,3-dione hydrochloride], the half-inhibitory concentration (IC50) in test [1] is 43 µM; in test [2], greater than 100 µM.
`O=c1[nH]c2ccc3c(c2[nH]c1=O)CN(Cc1ccc(C(F)(F)F)cc1)CC3` [Example 17, 1,4,7,8,9,10-Hexahydro-9-[[4-(trifluoromethyl)phenyl]methyl]pyrido[3,4-f]quinoxaline-2,3-dione]: the IC50 in test [1] and in test [2] was greater than 100 µM in each case.
As to `O=c1[nH]c2ccc3c(c2[nH]c1=O)CCN(Cc1ccc(C(F)(F)F)cc1)C3` [Example 26], the IC50 in test [1] and in test [2] was greater than 100 µM in each case.
With `O=c1[nH]c2cc([N+](=O)[O-])c3c(c2[nH]c1=O)CNCC3` [Example 31, 1,4,7,8,9,10-Hexahydro-6-nitropyrido[3,4-f]quinoxaline-2,3-dione], the figures for the half-inhibitory concentration (IC50) in test [1] and in test [2] were 51 µM and 0.48 µM, respectively. Further, at 10 µM the inhibition in test [3] was 70%.
In the case of `O=c1[nH]c2cc(Br)c3c(c2[nH]c1=O)CN(CCc1ccccc1)CC3` [Example 11, 6-Bromo-1,4,7,8,9,10-hexahydro-9-(2-phenylethyl)pyrido[3,4-f]quinoxaline-2,3-dione], the IC50 in test [1] is greater than 100 µM; in test [2], 9 µM. The inhibition at 10 µM in test [3] was less than 50%.
With `O=c1[nH]c2cc(Br)c3c(c2[nH]c1=O)CN(Cc1ccccc1)CC3` [Example 8, 6-Bromo-1,4,7,8,9,10-hexahydro-9-(phenylmethyl)pryrido[3,4-f]quinoxaline-2,3-dione], the IC50 was 20 µM in test [1] and 16 µM in test [2]. This compound also yielded an inhibition at 10 µM in test [3] of less than 50%.
In the case of `O=C(Cc1ccc(Cl)cc1)N1CCc2c([N+](=O)[O-])cc3[nH]c(=O)c(=O)[nH]c3c2C1` [Example 39], the IC50 in test [1] turned out to be 0.84 µM; in test [2], 8.2 µM. This compound registered an inhibition at 10 µM in test [3] of 98%.
As to `CC(C)(C)OC(=O)N1CCC(C(=O)N2CCc3c([N+](=O)[O-])cc4[nH]c(=O)c(=O)[nH]c4c3C2)CC1` [Example 34, 1,1-dimethylethyl 4-[(1,2,3,4,7,8,9,10-octahydro-6-nitro-2,3-dioxopyrido[3,4-f]quinoxaline-9-yl)carbonyl]-1-piperidine carboxylate], the concentration for half-maximal inhibition (IC50) in test [1] turned out to be 0.58 µM; in test [2], 6.9 µM. The inhibition at 10 µM in test [3] amounted to 81%.
With `O=C(c1ccccc1)N1CCc2c([N+](=O)[O-])cc3[nH]c(=O)c(=O)[nH]c3c2C1` [Example 35, 9-Benzoyl-1,4,7,8,9,10-hexahydro-6-nitropyrido[3,4-f]quinoxaline-2,3-dione], the IC50 was 0.37 µM in test [1] and 1.38 µM in test [2]. Also, in test [3], 10 µM produced 80% inhibition.
As for `CC(C)(C)OC(=O)N1CCC(C(=O)N2CCc3ccc4[nH]c(=O)c(=O)[nH]c4c3C2)CC1` [Example 32, 1,1-dimethylethyl 4-[(1,2,3,4,7,8,9,10-octahydro-2,3-dioxopyrido[3,4-f]quinoxaline-9-yl)carbonyl]-1-piperidine carboxylate], the IC50 in test [1] was greater than 100 µM; in test [2], 65 µM.
With `O=C(C1CCCCC1)N1CCc2c([N+](=O)[O-])cc3[nH]c(=O)c(=O)[nH]c3c2C1` [Example 36, 9-(Cyclohexylcarbonyl)-1,4,7,8,9,10-hexahydro-6-nitropyrido[3,4-f]quinoxaline-2,3-dione], the 50% inhibitory concentration (IC50) turned out to be 0.34 µM in test [1] and 5.87 µM in test [2]. In test [3], testing at 10 µM gave an inhibition of 88%.
For `O=C(Cc1ccccc1)N1CCc2c([N+](=O)[O-])cc3[nH]c(=O)c(=O)[nH]c3c2C1` [Example 38, 1,4,7,8,9,10-Hexahydro-6-nitro-9-(phenylacetyl)pyrido(3,4-f]quinoxaline-2,3-dione], in that order: 0.24 µM, 1.62 µM and 99%.
As to `O=c1[nH]c2ccc3c(c2[nH]c1=O)CNCC3` [Example 30, 1,4,7,8,9,10-Hexahydropyrido[3,4-f]quinoxaline-2,3-dione], the IC50 came to 84 µM in test [1] and 56 µM in test [2].

For the origin of these results see US6197771A, “Glutamate (ampa/kainate) receptor antagonists: N-substituted fused azacycloalkylquinoxalinediones” (Warner-Lambert Company, priority 2000, dated 2001).
